Experimental data taken from patent publication US9247759B2, “Identification of human T2R receptors that respond to bitter compounds that elicit the bitter taste in compositions, and the use thereof in assays to identify compounds that inhibit (block) bitter taste in compositions and use thereof” (SENOMYX, INC., priority 2007, dated 2016).

Experiments:
hT2R14 [1] = molecular target: T1, hT2R14 (Homo sapiens (Human), UniProt Q9NYV8); test: hT2R14 antagonist high-throughput FLIPR assay, stable cell line with G16g44, agonist aristolochic acid; type: cell-based; details: read-out: IC50 on hT2R14 bitter receptor
Outline: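 Compounds were co-applied with 3 μM aristolochic acid, a dose set to reach 70-80% of maximal hT2R14 activation. Read-out was FLIPR fluorescence in a stable HEK293 line co-expressing hT2R14 and G16g44.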

hT2R61 = hT2R61 (Homo sapiens (Human), UniProt P59537); test: hT2R panel inhibition, transient HEK293 G16g44, agonist Aristolochic Acid 25 nM; type: cell-based; details: receptor activated to EC80 with the corresponding agonist; for inhibition at 25 µM: HEK293, compound at 25 μM, read-out: screening result against bitter receptor 61
Outline: (§1)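 Inhibition is read as loss of receptor activity caused by the test compound against an EC80 agonist challenge. Receptors from a 22-member human panel were introduced one at a time into host cells already stably expressing the chimeric G protein.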

hT2R54 = test: hT2R panel inhibition, transient HEK293 G16g44, agonist Ranitidine 5 mM; type: cell-based, human; details: compound at 25 μM; receptor activated to EC80 with the corresponding agonist
Outline: as §1

hT2R10 = hT2R10 (Homo sapiens (Human), UniProt Q9NYW0); test: hT2R panel inhibition, transient HEK293 G16g44, agonist Strychnine 50 μM; type: cell-based; details: receptor activated to EC80 with the corresponding agonist; for inhibition at 25 µM: HEK293, read-out: screening result against bitter receptor 10, compound at 25 μM
hT2R9 = hT2R9 (Homo sapiens (Human), UniProt Q9NYW1); test: hT2R panel inhibition, transient HEK293 G16g44, agonist Ofloxacin 1 mM; type: cell-based; details: HEK293, compound at 25 μM; receptor activated to EC80 with the corresponding agonist; read-out: screening result against bitter receptor 9
Outline: as §1

hT2R44 = test: hT2R panel inhibition, transient HEK293 G16g44, agonist Denatonium 0.5 μM; type: cell-based, human; details: compound at 25 μM; receptor activated to EC80 with the corresponding agonist
Outline: as §1

hT2R3 = hT2R3 (Homo sapiens (Human), UniProt Q9NYW6); test: hT2R panel inhibition, transient HEK293 G16g44, agonist Chloroquine pH6.5 50 μM; type: cell-based; details: receptor activated to EC80 with the corresponding agonist; for inhibition at 25 µM: HEK293, compound at 25 μM, read-out: screening result against bitter receptor 3
Outline: as §1

hT2R71 = hT2R71 (Homo sapiens (Human), UniProt P59536); test: hT2R panel inhibition, transient HEK293 G16g44, agonist Picric Acid 10 μM; type: cell-based; details: receptor activated to EC80 with the corresponding agonist; for inhibition at 25 µM: HEK293, compound at 25 μM, read-out: screening result against bitter receptor 71
Outline: as §1

hT2R63 = test: hT2R panel inhibition, transient HEK293 G16g44, agonist Caffeine 1 mM or Andrographolide 100 μM; type: cell-based, human; details: compound at 25 μM; receptor activated to EC80 with the corresponding agonist
Outline: as §1

hT2R13 = hT2R13 (Homo sapiens (Human), UniProt Q9NYV9); test: hT2R panel inhibition, transient HEK293 G16g44, agonist Oxyphenonium 1 mM; type: cell-based; details: HEK293, compound at 25 μM; receptor activated to EC80 with the corresponding agonist; read-out: screening result against bitter receptor 13
Outline: as §1

hT2R65 = test: hT2R panel inhibition, transient HEK293 G16g44, agonist Oleuropein 1 mM; type: cell-based, human; details: compound at 25 μM; receptor activated to EC80 with the corresponding agonist
Outline: as §1

hT2R14 [2] = molecular target: T1, hT2R14; test: hT2R panel inhibition, transient HEK293 G16g44, agonist Aristolochic Acid 2 μM; type: cell-based; details: receptor activated to EC80 with the corresponding agonist; for inhibition at 25 µM: HEK293, compound at 25 μM, read-out: screening result against bitter receptor 14
Outline: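 Agonist challenge was at EC80, with 0.5 mM andrographolide on hT2R8 and 2 μM aristolochic acid on hT2R14. Inhibition was measured in functional assays in HEK293 cells that stably carry the promiscuous G protein G16g44 and were transiently transfected with the individual receptor.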

hT2R64 = hT2R64 (Homo sapiens (Human), UniProt P59538); test: hT2R panel inhibition, transient HEK293 G16g44, agonist Aristolochic Acid 1 μM; type: cell-based; details: receptor activated to EC80 with the corresponding agonist; for inhibition at 25 µM: HEK293, compound at 25 μM, read-out: screening result against bitter receptor 64
Outline: as §1

hT2R7 = hT2R7 (Homo sapiens (Human), UniProt Q9NYW3); test: hT2R panel inhibition, transient HEK293 G16g44, agonist Chloroquine pH6.5 10 mM; type: cell-based; details: HEK293, compound at 25 μM; receptor activated to EC80 with the corresponding agonist; read-out: screening result against bitter receptor 7
Outline: as §1

hT2R55 = test: hT2R panel inhibition, transient HEK293 G16g44, agonist Cinchonine 150 μM; type: cell-based, human; details: compound at 25 μM; receptor activated to EC80 with the corresponding agonist
Outline: as §1

hT2R67 = test: hT2R panel inhibition, transient HEK293 G16g44, agonist Andrographolide 5 μM; type: cell-based, human; details: compound at 25 μM; receptor activated to EC80 with the corresponding agonist
Outline: as §1

hT2R75 = hT2R75 (Homo sapiens (Human), UniProt P59540); test: hT2R panel inhibition, transient HEK293 G16g44, agonist Strychnine 1 μM; type: cell-based; details: receptor activated to EC80 with the corresponding agonist; for inhibition at 25 µM: HEK293, read-out: screening result against bitter receptor 75, compound at 25 μM
hT2R51 = hT2R51 (Homo sapiens (Human), UniProt P59533); test: hT2R panel inhibition, transient HEK293 G16g44, agonist Prop 2.5 μM; type: cell-based; details: receptor activated to EC80 with the corresponding agonist; for inhibition at 25 µM: HEK293, compound at 25 μM, read-out: screening result against bitter receptor 51
Outline: as §1

hT2R16 = hT2R16 (Homo sapiens (Human), UniProt Q9NYV7); test: hT2R panel inhibition, transient HEK293 G16g44, agonist Salicin 1 mM; type: cell-based; details: HEK293, compound at 25 μM; receptor activated to EC80 with the corresponding agonist; read-out: screening result against bitter receptor 16
Outline: as §1

hT2R5 = hT2R5 (Homo sapiens (Human), UniProt Q9NYW4); test: hT2R panel inhibition, transient HEK293 G16g44, agonist Picoline 10 mM; type: cell-based; details: HEK293, compound at 25 μM; receptor activated to EC80 with the corresponding agonist; read-out: screening result against bitter receptor 5
Outline: as §1

hT2R4 = hT2R4 (Homo sapiens (Human), UniProt Q9NYW5); test: hT2R panel inhibition, transient HEK293 G16g44, agonist Chloroquine pH6.5 5 mM; type: cell-based; details: HEK293, compound at 25 μM; receptor activated to EC80 with the corresponding agonist; class symbols; read-out: screening result against bitter receptor 4
Outline: as §1

Chain of hT2R51 (P59533 whole entry): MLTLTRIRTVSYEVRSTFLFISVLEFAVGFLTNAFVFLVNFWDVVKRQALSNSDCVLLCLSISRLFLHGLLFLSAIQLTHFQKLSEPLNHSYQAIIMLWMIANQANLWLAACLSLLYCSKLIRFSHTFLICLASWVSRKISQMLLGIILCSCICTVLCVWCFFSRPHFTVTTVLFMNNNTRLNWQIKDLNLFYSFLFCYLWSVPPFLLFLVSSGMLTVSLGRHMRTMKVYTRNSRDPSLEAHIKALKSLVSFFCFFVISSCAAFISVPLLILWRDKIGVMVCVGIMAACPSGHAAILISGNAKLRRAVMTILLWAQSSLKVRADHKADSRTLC
Chain of hT2R75 (P59540 whole entry): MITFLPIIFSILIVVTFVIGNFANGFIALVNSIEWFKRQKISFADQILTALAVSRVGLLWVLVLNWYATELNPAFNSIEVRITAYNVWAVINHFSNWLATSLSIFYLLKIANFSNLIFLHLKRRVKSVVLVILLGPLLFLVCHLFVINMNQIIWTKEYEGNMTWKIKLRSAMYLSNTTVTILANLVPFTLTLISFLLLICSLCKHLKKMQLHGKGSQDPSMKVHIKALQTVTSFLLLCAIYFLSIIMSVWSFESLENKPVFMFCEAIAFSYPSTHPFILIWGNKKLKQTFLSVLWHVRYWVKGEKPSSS
Chain of hT2R61 (P59537 whole entry): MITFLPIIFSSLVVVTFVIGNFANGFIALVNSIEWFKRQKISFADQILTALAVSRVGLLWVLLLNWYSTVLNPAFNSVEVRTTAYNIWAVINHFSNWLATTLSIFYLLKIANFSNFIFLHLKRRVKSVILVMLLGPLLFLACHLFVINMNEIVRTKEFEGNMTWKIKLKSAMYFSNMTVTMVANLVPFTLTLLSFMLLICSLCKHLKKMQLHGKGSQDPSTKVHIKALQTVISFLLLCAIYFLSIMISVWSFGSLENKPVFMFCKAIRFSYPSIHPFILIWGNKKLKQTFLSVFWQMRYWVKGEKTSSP
Chain of hT2R13 (Q9NYV9 whole entry): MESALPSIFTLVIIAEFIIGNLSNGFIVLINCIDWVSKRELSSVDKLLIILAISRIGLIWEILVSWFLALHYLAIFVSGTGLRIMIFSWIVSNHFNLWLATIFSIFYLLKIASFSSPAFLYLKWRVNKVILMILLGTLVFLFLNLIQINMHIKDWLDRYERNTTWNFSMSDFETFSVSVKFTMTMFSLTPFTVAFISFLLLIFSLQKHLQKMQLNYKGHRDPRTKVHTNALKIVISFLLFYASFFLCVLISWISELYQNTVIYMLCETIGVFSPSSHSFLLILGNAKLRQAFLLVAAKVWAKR
Chain of hT2R16 (Q9NYV7 whole entry): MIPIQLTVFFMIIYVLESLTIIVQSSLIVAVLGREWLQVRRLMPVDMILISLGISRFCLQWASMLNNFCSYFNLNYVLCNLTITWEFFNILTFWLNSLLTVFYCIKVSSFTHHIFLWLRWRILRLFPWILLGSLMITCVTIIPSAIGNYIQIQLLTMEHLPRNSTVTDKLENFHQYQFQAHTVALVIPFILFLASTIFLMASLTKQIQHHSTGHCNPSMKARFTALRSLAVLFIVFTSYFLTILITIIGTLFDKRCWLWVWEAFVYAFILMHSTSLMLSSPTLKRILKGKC
Chain of hT2R5 (Q9NYW4 whole entry): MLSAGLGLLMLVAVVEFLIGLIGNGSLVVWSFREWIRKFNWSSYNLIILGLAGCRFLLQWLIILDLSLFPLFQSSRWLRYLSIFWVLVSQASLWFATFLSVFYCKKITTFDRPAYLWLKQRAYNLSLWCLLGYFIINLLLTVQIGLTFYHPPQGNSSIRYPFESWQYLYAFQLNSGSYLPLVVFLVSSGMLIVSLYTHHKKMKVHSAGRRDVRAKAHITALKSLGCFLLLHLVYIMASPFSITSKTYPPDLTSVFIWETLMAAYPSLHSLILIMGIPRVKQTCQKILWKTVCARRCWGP
Chain of hT2R71 (P59536 whole entry): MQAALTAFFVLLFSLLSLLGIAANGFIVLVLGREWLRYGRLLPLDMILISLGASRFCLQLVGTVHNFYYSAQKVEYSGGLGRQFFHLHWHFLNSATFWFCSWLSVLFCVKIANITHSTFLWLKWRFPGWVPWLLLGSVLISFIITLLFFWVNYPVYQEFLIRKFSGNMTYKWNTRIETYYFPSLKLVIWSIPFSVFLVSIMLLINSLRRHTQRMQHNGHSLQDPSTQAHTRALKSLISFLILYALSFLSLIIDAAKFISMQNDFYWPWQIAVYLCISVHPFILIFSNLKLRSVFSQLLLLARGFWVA
Chain of hT2R3 (Q9NYW6 whole entry): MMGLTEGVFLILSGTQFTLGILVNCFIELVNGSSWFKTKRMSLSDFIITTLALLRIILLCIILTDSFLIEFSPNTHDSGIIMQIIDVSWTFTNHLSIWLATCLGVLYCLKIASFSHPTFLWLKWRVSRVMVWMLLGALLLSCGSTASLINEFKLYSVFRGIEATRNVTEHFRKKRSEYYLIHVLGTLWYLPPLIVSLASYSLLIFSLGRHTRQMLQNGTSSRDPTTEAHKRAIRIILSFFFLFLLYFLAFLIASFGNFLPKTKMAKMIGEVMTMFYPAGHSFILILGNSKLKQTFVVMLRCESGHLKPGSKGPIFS
T1 sequence (Q9NYV8 whole entry): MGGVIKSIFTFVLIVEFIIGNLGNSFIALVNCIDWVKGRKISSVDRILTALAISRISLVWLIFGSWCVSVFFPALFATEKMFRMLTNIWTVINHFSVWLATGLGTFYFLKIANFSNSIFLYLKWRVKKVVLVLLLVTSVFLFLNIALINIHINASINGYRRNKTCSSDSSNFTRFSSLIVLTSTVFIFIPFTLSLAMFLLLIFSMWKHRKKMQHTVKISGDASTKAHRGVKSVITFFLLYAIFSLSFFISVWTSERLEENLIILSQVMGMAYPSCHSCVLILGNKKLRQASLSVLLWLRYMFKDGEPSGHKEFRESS
Chain of hT2R9 (Q9NYW1 whole entry): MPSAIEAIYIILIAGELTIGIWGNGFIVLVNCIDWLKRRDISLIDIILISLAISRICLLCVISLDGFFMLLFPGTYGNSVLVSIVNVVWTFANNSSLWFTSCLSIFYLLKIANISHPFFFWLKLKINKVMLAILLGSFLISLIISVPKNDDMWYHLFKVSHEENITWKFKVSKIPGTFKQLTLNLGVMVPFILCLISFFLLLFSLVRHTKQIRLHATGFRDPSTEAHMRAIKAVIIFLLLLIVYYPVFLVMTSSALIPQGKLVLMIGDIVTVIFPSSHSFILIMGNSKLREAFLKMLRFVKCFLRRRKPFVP
Chain of hT2R7 (Q9NYW3 whole entry): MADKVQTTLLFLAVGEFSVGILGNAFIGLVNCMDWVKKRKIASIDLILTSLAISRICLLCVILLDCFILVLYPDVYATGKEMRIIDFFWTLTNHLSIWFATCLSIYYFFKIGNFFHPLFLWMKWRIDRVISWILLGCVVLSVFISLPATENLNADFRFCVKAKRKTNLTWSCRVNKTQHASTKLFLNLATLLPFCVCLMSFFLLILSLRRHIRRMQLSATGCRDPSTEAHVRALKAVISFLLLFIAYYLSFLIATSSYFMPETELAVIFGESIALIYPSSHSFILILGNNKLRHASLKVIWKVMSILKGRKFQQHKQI
Chain of hT2R64 (P59538 whole entry): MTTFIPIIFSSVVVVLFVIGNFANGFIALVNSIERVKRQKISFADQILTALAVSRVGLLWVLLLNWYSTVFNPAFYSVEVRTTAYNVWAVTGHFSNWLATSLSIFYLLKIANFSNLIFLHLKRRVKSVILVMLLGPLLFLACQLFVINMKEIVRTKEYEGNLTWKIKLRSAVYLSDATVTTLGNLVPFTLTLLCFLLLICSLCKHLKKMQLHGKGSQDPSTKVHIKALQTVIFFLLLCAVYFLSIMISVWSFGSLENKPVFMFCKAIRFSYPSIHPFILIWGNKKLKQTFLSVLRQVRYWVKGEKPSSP
Chain of hT2R10 (Q9NYW0 whole entry): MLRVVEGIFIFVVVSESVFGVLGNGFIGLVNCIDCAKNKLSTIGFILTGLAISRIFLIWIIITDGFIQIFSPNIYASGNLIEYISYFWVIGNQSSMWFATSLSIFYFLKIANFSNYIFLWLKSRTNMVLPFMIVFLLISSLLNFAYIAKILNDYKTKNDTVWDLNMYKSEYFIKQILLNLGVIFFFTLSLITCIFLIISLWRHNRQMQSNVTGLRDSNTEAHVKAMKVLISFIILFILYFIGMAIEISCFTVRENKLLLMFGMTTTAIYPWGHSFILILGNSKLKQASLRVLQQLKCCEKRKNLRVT
Chain of hT2R4 (Q9NYW5 whole entry): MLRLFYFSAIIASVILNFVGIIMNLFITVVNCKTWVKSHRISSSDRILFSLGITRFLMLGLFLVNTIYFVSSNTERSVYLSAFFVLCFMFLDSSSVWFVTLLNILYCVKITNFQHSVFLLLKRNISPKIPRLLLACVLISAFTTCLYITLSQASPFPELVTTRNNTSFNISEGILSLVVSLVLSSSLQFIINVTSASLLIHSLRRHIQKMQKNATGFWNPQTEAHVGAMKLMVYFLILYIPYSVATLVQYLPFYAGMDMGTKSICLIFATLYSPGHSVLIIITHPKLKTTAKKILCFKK

Row | Structure (SMILES) | IC50 (hT2R14 [1]) | screening result against bitter receptor 54 (hT2R54) | inhibition at 25 µM (hT2R9) | screening result against bitter receptor 44 (hT2R44) | screening result against bitter receptor 63 (hT2R63) | inhibition at 25 µM (hT2R13) | screening result against bitter receptor 65 (hT2R65) | inhibition at 25 µM (hT2R7) | screening result against bitter receptor 55 (hT2R55) | screening result against bitter receptor 67 (hT2R67) | inhibition at 25 µM (hT2R16) | inhibition at 25 µM (hT2R61) | inhibition at 25 µM (hT2R10) | inhibition at 25 µM (hT2R3) | inhibition at 25 µM (hT2R71) | inhibition at 25 µM (hT2R14 [2]) | inhibition at 25 µM (hT2R64) | inhibition at 25 µM (hT2R75) | inhibition at 25 µM (hT2R51) | inhibition at 25 µM (hT2R5) | further results
1 | COc1ccc(CN(Cc2ccc(F)cc2)S(=O)(=O)c2ccc(C(=O)O)cc2)cc1 [Example 5-10, 4-(N-(4-fluorobenzyl)-N-(4-methoxybenzyl)sulfamoyl)benzoic acid] | 1970 nM | ++++ (80% or greater inhibition = ++++) | 40 to 60% | ++ (40% to 60% inhibition = ++) | ++++ (80% or greater inhibition = ++++) | 40 to 60% | ++++ (80% or greater inhibition = ++++) | 40 to 60% | +++ (60% to 80% inhibition = +++) | +++ (60% to 80% inhibition = +++) | > 80% |  |  |  |  |  |  |  |  |  | screening result against bitter receptor 61 (hT2R61; compound at 25 μM): ++++ (80% or greater inhibition = ++++); screening result against bitter receptor 10 (hT2R10; compound at 25 μM): ++++ (80% or greater inhibition = ++++); screening result against bitter receptor 3 (hT2R3; compound at 25 μM): +++ (60% to 80% inhibition = +++); screening result against bitter receptor 71 (hT2R71; compound at 25 μM): +++ (60% to 80% inhibition = +++); screening result against bitter receptor 14 (hT2R14 [2]; compound at 25 μM): ++++ (80% or greater inhibition = ++++); screening result against bitter receptor 64 (hT2R64; compound at 25 μM): +++ (60% to 80% inhibition = +++); screening result against bitter receptor 75 (hT2R75; compound at 25 μM): + (20% to 40% inhibition = +); screening result against bitter receptor 51 (hT2R51; compound at 25 μM): ++++ (80% or greater inhibition = ++++)
2 | COc1ccc(CN(Cc2ccccc2)S(=O)(=O)c2ccc(C(=O)O)cc2)cc1C [Example 5-89, 4-(N-benzyl-N-(4-methoxy-3-methylbenzyl)sulfamoyl)benzoic acid] |  | + (20% to 40% inhibition = +) | 20 to 40% | +++ (60% to 80% inhibition = +++) | ++++ (80% or greater inhibition = ++++) | 20 to 40% | ++++ (80% or greater inhibition = ++++) | 40 to 60% | ++++ (80% or greater inhibition = ++++) | + (20% to 40% inhibition = +) | 20 to 40% | > 80% | 60 to 80% | 40 to 60% | 60 to 80% | > 80% | 60 to 80% | 20 to 40% | > 80% | 20 to 40% | 
3 | COc1ccc(CN(Cc2cccc(F)c2)S(=O)(=O)c2ccc(C(=O)O)cc2)cc1 [Example 5-12, 4-(N-(3-fluorobenzyl)-N-(4-methoxybenzyl)sulfamoyl)benzoic acid] |  | ++++ (80% or greater inhibition = ++++) | 40 to 60% | +++ (60% to 80% inhibition = +++) | ++++ (80% or greater inhibition = ++++) | 20 to 40% | ++++ (80% or greater inhibition = ++++) | 40 to 60% | ++++ (80% or greater inhibition = ++++) | +++ (60% to 80% inhibition = +++) | 60 to 80% | > 80% | > 80% | 60 to 80% | > 80% | > 80% | 60 to 80% | 20 to 40% | > 80% | 40 to 60% | 
4 | COc1ccc(CN(Cc2cccc(F)c2F)S(=O)(=O)c2ccc(C(=O)O)cc2)cc1 [Example 5-33, 4-(N-(2,3-difluorobenzyl)-N-(4-methoxybenzyl)sulfamoyl)benzoic acid] |  | +++ (60% to 80% inhibition = +++) | 20 to 40% | +++ (60% to 80% inhibition = +++) | +++ (60% to 80% inhibition = +++) | 20 to 40% | +++ (60% to 80% inhibition = +++) | 20 to 40% | ++++ (80% or greater inhibition = ++++) | ++ (40% to 60% inhibition = ++) | 40 to 60% | > 80% | 60 to 80% | 40 to 60% | 60 to 80% | > 80% | 60 to 80% |  | 40 to 60% | 40 to 60% | inhibition at 25 µM (hT2R4): 40 to 60%
5 | COc1ccc(CN(Cc2ccc(OC)cc2)S(=O)(=O)c2ccc(C(=O)O)cc2)cc1 [Example 5-30, 4-(N,N-bis(4-methoxybenzyl)sulfamoyl)benzoic acid] | 4140 nM |  | 20 to 40% | +++ (60% to 80% inhibition = +++) | ++++ (80% or greater inhibition = ++++) | 20 to 40% |  | 20 to 40% | ++++ (80% or greater inhibition = ++++) |  | 20 to 40% |  | 40 to 60% | 40 to 60% | 60 to 80% | > 80% | > 80% | 20 to 40% | 40 to 60% | 20 to 40% | 
6 | Cc1ccc(S(=O)(=O)N(Cc2ccc(F)cc2)CC2CCC(C(=O)O)CC2)cc1 (stereo not shown) [Example 5-20, 4-((N-(4-fluorobenzyl)-4-methylphenylsulfonamido)methyl)-cyclohexanecarboxylic acid] | 83 nM |  | 20 to 40% | +++ (60% to 80% inhibition = +++) | ++ (40% to 60% inhibition = ++) | 20 to 40% | + (20% to 40% inhibition = +) | 20 to 40% | ++++ (80% or greater inhibition = ++++) |  | 40 to 60% | > 80% | 40 to 60% | > 80% | 40 to 60% | > 80% | 60 to 80% | 40 to 60% |  | 20 to 40% | 
